Test results from patent publication US8048986B2, “Reversed mammalian protein-protein interaction trap” (Vlaams Interuniversitair Instituut Voor Biotechnologie VZW, priority 2001, dated 2011).
“Also recorded” adds a separate entry of the source.

Biological target: ALK4-FKBP12 interaction (Homo sapiens, UniProt P62942)
Assay: reversed interaction trap: pSELFFY-ALK4 bait with inhibitory prey pMET7-fPPD1-FKBP12, rPAP1-luciferase reporter in HEK293T cells
Format: cell-based
Conditions: pSELFFY-ALK4 + pMET7-fPPD1-FKBP12 (1000, 500, 250 ng), FK506 pretreatment, Epo 5 ng/ml after four hours, normalized with irrelevant bait pSELFFY-EpoR, FIG. 6
Procedure: HEK293T cells (six-well plate) were transfected with a combination of the following plasmids:
A representative experiment of triplicate luciferase measurements is shown. The values have been normalized using background luciferase activities (fold induction) and by using an irrelevant bait construct (pSELFFY-EpoR, exp. 4-6) to correct for toxicity of FK506 on the cells.
Two days after transfection, cells were seeded in black well plates (approximately 10,000 cells/well) and pretreated with various concentrations of FK506 as indicated. Epo was added after four hours to the treated cells (5 ng/ml). Twenty-four hours after stimulation, luciferase and beta-galactosidase activities were measured.
The values have been normalized using background luciferase activities (fold induction) and by using an irrelevant bait construct (pSELFFY-EpoR, exp. 4-6) to correct for toxicity of FK506 on the cells.

Chain of ALK4-FKBP12 interaction (P62942 2-107): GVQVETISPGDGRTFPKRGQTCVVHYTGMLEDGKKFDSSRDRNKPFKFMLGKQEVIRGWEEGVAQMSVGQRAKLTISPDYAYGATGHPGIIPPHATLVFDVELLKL
Chain of ALK4-FKBP12 interaction (P18031 1-276 partner limits assumed): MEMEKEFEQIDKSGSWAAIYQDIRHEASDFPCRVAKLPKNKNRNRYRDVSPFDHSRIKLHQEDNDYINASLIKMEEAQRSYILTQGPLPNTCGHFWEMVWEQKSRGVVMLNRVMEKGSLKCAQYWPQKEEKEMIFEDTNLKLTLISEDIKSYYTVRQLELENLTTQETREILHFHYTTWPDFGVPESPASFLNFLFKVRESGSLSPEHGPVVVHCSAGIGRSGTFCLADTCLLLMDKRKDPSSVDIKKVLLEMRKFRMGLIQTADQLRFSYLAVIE

C=CC[C@@H]1/C=C(\C)C[C@H](C)C[C@H](OC)[C@H]2O[C@@](O)(C(=O)C(=O)N3CCCC[C@H]3C(=O)O[C@H](/C(C)=C/[C@@H]3CC[C@@H](O)[C@H](OC)C3)[C@H](C)[C@@H](O)CC1=O)[C@H](C)C[C@@H]2OC [FK506]
restoration of signaling via the pSELFFY-ALK4 bait / block of inhibition by the bait-prey interaction (luciferase activity, fold induction): blocked, in a dose dependent manner; also recorded: partially restores signaling
